Source: US20230137849A1, “USE OF A COMPOUND OF THE DIURETICS CLASS FOR TREATING CANCER” (AZELEAD, priority 2017, published 2023)

Experiments:
E-CADHERIN = assay: q-RT-PCR expression of EMT markers in MDA-MB-231 cells under hypoxia: E-CADHERIN; assay type: cell-based, human; settings: althiazide 100 μM, hypoxic conditions (1% O2), vs control, FIG. 11
Method: The cell cultures are carried out on human breast cancer epithelial cell lines MDA-MB-231 (HTB-26™), resulting from metastases present in a pleural effusion of a patient with a mammary adenocarcinoma. This line is used as a triple negative cancer cell model (no expression of ER-type nuclear estrogen receptors, nuclear progesterone receptors or overexpression of the oncogene encoding HER2 protein (Human Epidermal Growth factor Receptor-2).
The cells were cultured in DMEM medium (Eurobio, Fance) supplemented with 10% fetal calf serum (FCS) (Eurobio, Fance) at 37° C., 5% CO2. The medium was changed every 3 days.
The cells were placed in a controlled atmosphere at 1% oxygen 24 hours before the application of the different treatments.
The expression of the mRNAs is measured by the q-RT-PCR method. The cells were seeded at the density of 500,000 cells/well in 6-well plates. After 24 hours at 37° C., 5% CO2 and 1% O2, the medium was renewed and added the various treatments. RNA was isolated using TRI Reagent® (sigma), assayed and retro-transcribed into complementary DNA using the PrimeScript RT Reagent Kit (Takara). The expression levels of the mRNA of the genes of interest were determined by quantitative PCR (LightCycler® 480 Instrument II) with the primers listed in Table 2: […]
The results are calculated using the Delta Delta Ct (Δ ΔCt) method.

[1] = test system: hematopoietic stem cells CD41:GFP accumulated in the AGM; assay: Zebrafish embryo test: HSC accumulated in the AGM (initiation of the metastatic process); assay type: in vivo; settings: althiazide 10 μM (FIG. 2; b187 prints 10 μl), embryos 25 hpf treated 24 h, vs DMSO
Excerpt: A method for determining whether a molecule is capable of treating cancer in the pre-metastatic state has been described in international application WO 2011/007259. This method consists in isolating molecules capable of inhibiting the emergence of hematopoietic stem cells from the floor of the aorta without cell division, but by endothelial-to-hematopoietic transition. This emergence involves the loss of cell polarity of emerging cells, the loss of cellular junctions with these neighboring cells and the acquisition of migratory properties. This model is used because it mimics each stage of the epithelial-mesenchymal transition, the first stage of cancer metastasis. The endothelial-to-hematopoietic transition takes place in a region of the embryo called Aorta-Gonad-Mesonephros (AGM).
In order to evaluate the inhibition of the endothelial-to-hematopoietic transition, transgenic CD41:GFP (green fluorescent protein) embryos are used. HSCs express GFP under the control of the CD41 promoter, which allows them to be monitored in vivo under a fluorescence microscope. The read-out is the number of hematopoietic stem cells CD41:GFP accumulated in the AGM (mimicking the initiation of the metastatic process) and/or in the CHT of the zebrafish embryo (mimicking the progression of the metastatic process). […]

C=CCSCC1Nc2cc(Cl)c(S(N)(=O)=O)cc2S(=O)(=O)N1 (racemic) [althiazide]
increase in E-CADHERIN expression (E-CADHERIN): 73%
number of HSC accumulated in the AGM compared with reference embryos; local migration of HSC [1]: greater
number of HSC accumulated in the AGM compared with reference embryos; local migration of HSC ([1]; listed as thiazide): reduction of the junction loss and the local migration of HSC
